Reference: the supplement of paper PMC10307832

Tests used:
Experiment in all cases: relative viability (nuclei count vs DMSO), 5 days (fraction); higher = more cells survive
BAM7 + Olaparib = compound: CCOC1=CC=CC=C1N=NC2=C(NN(C2=O)C3=NC(=CS3)C4=CC=CC=C4)C [BAM7] + O=C(c1cc(Cc2n[nH]c(=O)c3ccccc23)ccc1F)N1CCN(C(=O)C2CC2)CC1 [Olaparib] (partner 8 µM)
Method in brief: (§1)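 Lung cancer cell lines were pin-tool dosed in 1536-well plates on the day after seeding, with either a lone drug or a fixed anchor-drug dose plus five library-drug doses (not always all listed) in √10 steps. Nuclei were counted on 4× images after 5 days. Relative viability is the ratio of treated-well to vehicle-well nuclei counts, with each value a median of duplicate plates.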

[1] = compound: CCn1c(-c2nonc2N)nc2c(C#CC(C)(C)O)ncc(OC[C@H]3CCCNC3)c21 + CC(=O)c1c(C)c2cnc(Nc3ccc(N4CCNCC4)cn3)nc2n(C2CCCC2)c1=O [Palbociclib] (partner 0.5 µM)
Method in brief: as §1

[2] = compound: CCn1c(-c2nonc2N)nc2c(C#CC(C)(C)O)ncc(OC[C@H]3CCCNC3)c21 + CC1(C)CCC(c2ccc(Cl)cc2)=C(CN2CCN(c3ccc(C(=O)NS(=O)(=O)c4ccc(N[C@H](CCN5CCOCC5)CSc5ccccc5)c(S(=O)(=O)C(F)(F)F)c4)cc3)CC2)C1 [Navitoclax] (partner 0.5 µM)
Method in brief: as §1

[3] = compound: CCn1c(-c2nonc2N)nc2c(C#CC(C)(C)O)ncc(OC[C@H]3CCCNC3)c21 + CS(=O)(=O)CCNCc1ccc(-c2ccc3ncnc(Nc4ccc(OCc5cccc(F)c5)c(Cl)c4)c3c2)o1 [Lapatinib] (partner 2 µM)
Method in brief: as §1

Which relative viability (BAM7 + Olaparib; first compound 0.5 µM) does the source give for UMC-11 here?
The relative viability was 0.305.

And the relative viability (BAM7 + Olaparib; first compound 5 µM)?
Its relative viability is 0.388.

What about the relative viability (BAM7 + Olaparib; first compound 15.81 µM) of the same cell line?
Its relative viability is 0.462.

What about the relative viability (BAM7 + Olaparib; first compound 50 µM) of the same cell line?
Its relative viability is 0.377.

What about the relative viability ([1]; first compound 0.01 µM) of the same cell line?
Its relative viability is 0.292.

What about the relative viability ([1]; first compound 0.03162 µM) of the same cell line?
Its relative viability is 0.291.

And the relative viability ([1]; first compound 0.1 µM)?
The relative viability was 0.305.

What about the relative viability ([1]; first compound 0.3162 µM) of the same cell line?
The relative viability was 0.329.

What about the relative viability ([1]; first compound 1 µM) of the same cell line?
Its relative viability is 0.339.

And the relative viability ([2]; first compound 0.01 µM)?
The relative viability was 0.323.

What about the relative viability ([2]; first compound 0.03162 µM) of the same cell line?
The relative viability was 0.288.

What about the relative viability ([2]; first compound 0.1 µM) of the same cell line?
The relative viability was 0.323.

What about the relative viability ([2]; first compound 0.3162 µM) of the same cell line?
Its relative viability is 0.29.

And the relative viability ([2]; first compound 1 µM)?
The relative viability was 0.3.

What about the relative viability ([3]; first compound 0.01 µM) of the same cell line?
The relative viability was 1.08.

And the relative viability ([3]; first compound 0.03162 µM)?
Its relative viability is 0.987.

And the relative viability ([3]; first compound 0.1 µM)?
Its relative viability is 0.952.

And the relative viability ([3]; first compound 0.3162 µM)?
Its relative viability is 0.818.

What about the relative viability ([3]; first compound 1 µM) of the same cell line?
The relative viability was 1.08.
